Experiment [1] addresses 1-phosphatidylinositol 4,5-bisphosphate phosphodiesterase gamma-1 (Homo sapiens, UniProt P19174). The experiment can be described thus: Counterscreen for inhibitors of phospholipase C isozymes (PLC-B3): Fluorescence-based biochemical high throughput dose response assay to identify inhibitors of phospholipase C isozymes (PLC-gamma1).
For experiment [2], the target named is 1-phosphatidylinositol 4,5-bisphosphate phosphodiesterase beta-3 (Homo sapiens, UniProt Q01970). The experiment can be described thus: Fluorescence-based biochemical high throughput dose response assay to identify inhibitors of phospholipase C isozymes (PLC-B3).
Sequence of 1-phosphatidylinositol 4,5-bisphosphate phosphodiesterase beta-3 (Q01970 whole entry): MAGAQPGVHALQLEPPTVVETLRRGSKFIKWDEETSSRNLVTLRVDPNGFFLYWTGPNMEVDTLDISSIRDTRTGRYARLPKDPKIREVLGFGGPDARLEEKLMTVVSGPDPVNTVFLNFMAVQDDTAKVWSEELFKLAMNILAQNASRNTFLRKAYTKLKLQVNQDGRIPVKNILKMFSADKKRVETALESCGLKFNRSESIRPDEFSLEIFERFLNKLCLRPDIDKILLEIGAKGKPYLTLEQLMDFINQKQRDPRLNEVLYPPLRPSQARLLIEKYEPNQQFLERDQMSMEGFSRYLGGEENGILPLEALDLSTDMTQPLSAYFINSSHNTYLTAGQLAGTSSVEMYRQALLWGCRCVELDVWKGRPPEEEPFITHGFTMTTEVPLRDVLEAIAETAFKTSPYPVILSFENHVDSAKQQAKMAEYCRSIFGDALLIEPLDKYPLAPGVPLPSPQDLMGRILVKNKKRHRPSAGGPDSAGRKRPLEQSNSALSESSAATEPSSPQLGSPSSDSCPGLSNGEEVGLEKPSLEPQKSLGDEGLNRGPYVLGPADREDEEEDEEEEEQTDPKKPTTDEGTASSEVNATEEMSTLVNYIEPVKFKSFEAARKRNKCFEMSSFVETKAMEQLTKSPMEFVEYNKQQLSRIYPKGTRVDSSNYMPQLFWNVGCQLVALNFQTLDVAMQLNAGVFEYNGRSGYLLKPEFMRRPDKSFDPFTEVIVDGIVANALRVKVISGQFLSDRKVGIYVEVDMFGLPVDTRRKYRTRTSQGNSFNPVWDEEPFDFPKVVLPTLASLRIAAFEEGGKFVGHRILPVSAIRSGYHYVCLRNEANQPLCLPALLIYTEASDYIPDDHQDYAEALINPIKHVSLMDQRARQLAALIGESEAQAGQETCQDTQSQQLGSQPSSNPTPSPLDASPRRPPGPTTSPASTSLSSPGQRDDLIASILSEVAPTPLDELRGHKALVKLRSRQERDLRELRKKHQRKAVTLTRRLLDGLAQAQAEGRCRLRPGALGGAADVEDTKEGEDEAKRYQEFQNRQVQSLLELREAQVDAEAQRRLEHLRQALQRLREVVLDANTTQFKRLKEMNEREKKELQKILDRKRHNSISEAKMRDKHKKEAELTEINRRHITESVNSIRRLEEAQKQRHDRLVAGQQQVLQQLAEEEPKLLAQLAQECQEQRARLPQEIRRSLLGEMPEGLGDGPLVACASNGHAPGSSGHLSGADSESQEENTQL
Experiment [3] addresses Tyrosine-protein phosphatase non-receptor type 11 (Homo sapiens, UniProt Q06124). Kind of experiment: PTPN11 enzyme inhibitors – biochemical, selectivity assay for STEP inhibitor project, dose response (AID 602367). It counts as functional. The conditions noted are these: read-out: IC50_Mean.
The target of experiment [4] is Tyrosine-protein phosphatase non-receptor type 5 (Homo sapiens, UniProt P54829). The experiment can be described thus: PTPN5 enzyme inhibition – biochemical, fluorescence intensity, uHTS hits, confirmation (AID 602372). The experiment is classed as functional. The conditions noted are these: read-out: IC50_Mean.
Experiment [5] deals with Disintegrin and metalloproteinase domain-containing protein 17 (Homo sapiens, UniProt P78536). The experiment can be described thus: exosite inhibitors of ADAM17, dose response, biochemical (AID 743260).
Sequence of Disintegrin and metalloproteinase domain-containing protein 17 (P78536 whole entry, the tested form may be a part): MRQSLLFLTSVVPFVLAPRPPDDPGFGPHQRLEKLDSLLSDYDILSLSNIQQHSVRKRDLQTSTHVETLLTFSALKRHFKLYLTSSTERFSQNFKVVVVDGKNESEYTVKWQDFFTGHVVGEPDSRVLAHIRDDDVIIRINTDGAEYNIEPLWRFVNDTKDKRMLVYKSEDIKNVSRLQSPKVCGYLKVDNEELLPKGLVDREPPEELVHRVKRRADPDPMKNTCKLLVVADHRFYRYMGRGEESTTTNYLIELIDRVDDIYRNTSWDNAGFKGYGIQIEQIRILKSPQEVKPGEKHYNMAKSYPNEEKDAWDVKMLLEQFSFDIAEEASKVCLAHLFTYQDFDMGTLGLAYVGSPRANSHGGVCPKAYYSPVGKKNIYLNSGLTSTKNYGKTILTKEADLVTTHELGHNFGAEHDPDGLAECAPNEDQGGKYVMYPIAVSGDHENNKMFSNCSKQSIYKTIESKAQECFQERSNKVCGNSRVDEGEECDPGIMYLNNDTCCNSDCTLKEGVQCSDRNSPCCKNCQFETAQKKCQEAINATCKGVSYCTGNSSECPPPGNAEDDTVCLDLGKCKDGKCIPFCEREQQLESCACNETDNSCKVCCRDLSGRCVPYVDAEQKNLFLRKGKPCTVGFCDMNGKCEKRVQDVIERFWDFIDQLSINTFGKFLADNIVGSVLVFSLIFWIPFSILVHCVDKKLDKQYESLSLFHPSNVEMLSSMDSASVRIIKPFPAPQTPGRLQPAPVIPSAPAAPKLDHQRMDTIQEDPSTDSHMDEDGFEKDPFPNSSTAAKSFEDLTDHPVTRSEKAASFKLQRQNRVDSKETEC
Experiment [6] deals with T1, Carboxy-terminal domain RNA polymerase II polypeptide A small phosphatase 1 (Homo sapiens, UniProt Q9GZU7).
T1 sequence (Q9GZU7 whole entry): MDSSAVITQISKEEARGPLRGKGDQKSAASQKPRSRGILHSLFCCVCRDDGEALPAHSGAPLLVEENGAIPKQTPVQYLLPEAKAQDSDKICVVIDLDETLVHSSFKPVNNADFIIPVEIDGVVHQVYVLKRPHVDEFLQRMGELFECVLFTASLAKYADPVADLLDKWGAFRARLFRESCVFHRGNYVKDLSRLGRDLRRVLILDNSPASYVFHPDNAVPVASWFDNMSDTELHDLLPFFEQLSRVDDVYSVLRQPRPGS
The experiment can be described thus: CTDSP1 inhibitors, concentration-response, biochemical, absorbance readout, ultra-high-throughput screen actives (AID 540297). The experiment is classed as functional.

The target in experiment [7] is Dual specificity protein phosphatase 3 (Homo sapiens, UniProt P51452). The experiment can be described thus: VHR phosphatase inhibition, dose response, selectivity assay for STEP inhibitor project, biochemical (AID 602374). Conditions: read-out: IC50_Mean. It counts as functional.
Experiment [8] is described as follows: inhibition of ADAM10 peptide cleavage – biochemical, FRET peptide substrate, recombinant human ADAM10, selectivity assay for ADAM17 exosite inhibitor project, dose response (AID 743259).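 Further: ADAM10 enzyme cleaving a FRET peptide substrate.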
The next experiment addresses fMet-Leu-Phe receptor (Homo sapiens, UniProt P21462). The experiment can be described thus: formyl peptide receptor binders – dose response (AID 519). The experiment is classed as functional.
The target of the next experiment is Genome polyprotein (dengue virus type 2, UniProt P29990). The experiment can be described thus: flavivirus cap methylation enzyme inhibition – biochemical, confirmation dose response, primary screen (AID 588689). The experiment is classed as functional.
The target in the next experiment is T2, Protein RecA (Mycobacterium tuberculosis, UniProt P9WHJ3).
T2 sequence (P9WHJ3 whole entry): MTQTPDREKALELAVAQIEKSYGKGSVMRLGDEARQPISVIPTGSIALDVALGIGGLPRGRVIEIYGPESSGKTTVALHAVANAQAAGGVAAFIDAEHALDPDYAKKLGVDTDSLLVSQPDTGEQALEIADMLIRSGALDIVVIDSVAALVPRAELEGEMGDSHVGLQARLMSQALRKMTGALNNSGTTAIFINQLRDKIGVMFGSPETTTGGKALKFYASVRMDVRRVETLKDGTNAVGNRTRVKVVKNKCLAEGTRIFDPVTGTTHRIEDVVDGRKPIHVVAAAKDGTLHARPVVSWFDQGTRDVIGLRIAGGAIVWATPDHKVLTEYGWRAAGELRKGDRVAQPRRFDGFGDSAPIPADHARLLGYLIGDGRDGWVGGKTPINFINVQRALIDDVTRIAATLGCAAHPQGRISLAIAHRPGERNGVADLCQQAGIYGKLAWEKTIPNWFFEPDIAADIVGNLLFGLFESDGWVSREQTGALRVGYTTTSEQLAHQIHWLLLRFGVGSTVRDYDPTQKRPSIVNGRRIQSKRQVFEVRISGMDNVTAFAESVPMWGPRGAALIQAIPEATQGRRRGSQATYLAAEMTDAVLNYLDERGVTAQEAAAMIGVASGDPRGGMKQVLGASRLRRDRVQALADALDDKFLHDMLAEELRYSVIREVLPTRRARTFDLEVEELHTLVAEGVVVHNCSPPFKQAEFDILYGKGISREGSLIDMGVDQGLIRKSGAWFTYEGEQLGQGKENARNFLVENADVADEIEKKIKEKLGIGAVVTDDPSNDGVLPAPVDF
Kind of experiment: Fluorescence Cell-Free Homogeneous Dose Retest to Identify Inhibitors of RecA-Intein Splicing Activity. [Related pubchem assays (depositor defined):AID2097, AID2223, AID489010, AID492950]. The experiment is classed as functional.

Experiment [9] addresses Histone-lysine N-methyltransferase NSD2 (Homo sapiens, UniProt O96028). It counts as biochemical.
The target of experiment [10] is T3, Apoptotic protease-activating factor 1 (Homo sapiens, UniProt O14727).
T3 sequence (O14727 whole entry): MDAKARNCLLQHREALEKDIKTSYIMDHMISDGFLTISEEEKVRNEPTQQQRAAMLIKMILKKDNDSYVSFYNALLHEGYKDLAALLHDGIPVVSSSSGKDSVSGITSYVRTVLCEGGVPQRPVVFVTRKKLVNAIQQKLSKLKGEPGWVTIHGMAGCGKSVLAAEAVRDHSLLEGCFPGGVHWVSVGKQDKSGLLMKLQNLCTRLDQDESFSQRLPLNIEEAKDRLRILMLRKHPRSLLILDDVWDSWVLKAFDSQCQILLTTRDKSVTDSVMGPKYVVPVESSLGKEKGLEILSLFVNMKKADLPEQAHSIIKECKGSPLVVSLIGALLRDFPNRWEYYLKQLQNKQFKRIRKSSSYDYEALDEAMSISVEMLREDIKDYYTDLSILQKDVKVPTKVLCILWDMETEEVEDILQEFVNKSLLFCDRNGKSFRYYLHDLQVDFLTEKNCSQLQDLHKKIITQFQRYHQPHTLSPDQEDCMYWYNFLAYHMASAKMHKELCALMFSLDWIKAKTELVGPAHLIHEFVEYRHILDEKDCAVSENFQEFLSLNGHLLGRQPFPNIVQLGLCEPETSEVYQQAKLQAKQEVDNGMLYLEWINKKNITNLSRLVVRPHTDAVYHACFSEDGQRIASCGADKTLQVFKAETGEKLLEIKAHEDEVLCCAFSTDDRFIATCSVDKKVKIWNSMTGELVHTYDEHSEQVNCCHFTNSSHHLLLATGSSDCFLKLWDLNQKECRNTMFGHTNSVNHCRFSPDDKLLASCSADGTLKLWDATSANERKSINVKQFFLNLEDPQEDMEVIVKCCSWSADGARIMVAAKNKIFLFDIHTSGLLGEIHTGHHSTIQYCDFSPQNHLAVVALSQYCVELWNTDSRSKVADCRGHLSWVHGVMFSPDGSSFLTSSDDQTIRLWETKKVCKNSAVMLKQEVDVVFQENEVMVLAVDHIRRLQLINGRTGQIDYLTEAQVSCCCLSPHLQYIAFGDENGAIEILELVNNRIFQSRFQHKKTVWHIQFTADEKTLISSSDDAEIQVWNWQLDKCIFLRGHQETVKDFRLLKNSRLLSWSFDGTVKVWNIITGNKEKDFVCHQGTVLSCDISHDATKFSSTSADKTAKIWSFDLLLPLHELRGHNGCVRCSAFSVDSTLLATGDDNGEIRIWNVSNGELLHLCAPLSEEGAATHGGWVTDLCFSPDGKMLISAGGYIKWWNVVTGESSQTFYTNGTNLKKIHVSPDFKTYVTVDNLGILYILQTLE
It counts as functional.

Experiment [11] has as its target T4, Replicative DNA helicase DnaB (Mycobacterium tuberculosis, UniProt P9WMR3).
T4 sequence (P9WMR3 whole entry): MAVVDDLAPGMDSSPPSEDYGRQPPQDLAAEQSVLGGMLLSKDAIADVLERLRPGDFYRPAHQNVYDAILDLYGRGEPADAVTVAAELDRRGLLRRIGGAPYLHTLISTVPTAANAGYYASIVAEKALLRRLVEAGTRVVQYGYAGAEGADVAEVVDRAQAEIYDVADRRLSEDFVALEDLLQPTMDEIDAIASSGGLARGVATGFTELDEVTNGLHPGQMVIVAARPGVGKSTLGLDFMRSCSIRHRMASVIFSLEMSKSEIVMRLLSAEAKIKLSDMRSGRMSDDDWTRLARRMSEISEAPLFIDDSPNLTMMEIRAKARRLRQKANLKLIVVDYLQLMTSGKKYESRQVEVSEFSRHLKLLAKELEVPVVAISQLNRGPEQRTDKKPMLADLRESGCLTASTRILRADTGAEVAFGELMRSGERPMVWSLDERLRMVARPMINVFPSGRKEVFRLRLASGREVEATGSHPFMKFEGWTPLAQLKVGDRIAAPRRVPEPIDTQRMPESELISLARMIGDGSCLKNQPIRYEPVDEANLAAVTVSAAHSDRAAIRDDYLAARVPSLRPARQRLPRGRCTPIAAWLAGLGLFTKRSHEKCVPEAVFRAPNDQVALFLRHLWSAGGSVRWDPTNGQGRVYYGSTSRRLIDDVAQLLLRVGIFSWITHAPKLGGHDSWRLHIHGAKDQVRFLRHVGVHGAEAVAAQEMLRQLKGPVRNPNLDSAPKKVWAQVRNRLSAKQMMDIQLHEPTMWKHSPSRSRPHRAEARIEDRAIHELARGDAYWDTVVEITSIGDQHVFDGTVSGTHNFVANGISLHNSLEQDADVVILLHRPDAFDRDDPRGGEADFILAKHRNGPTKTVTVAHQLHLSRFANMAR
Kind of experiment: DnaB intein splicing inhibitors, dose response, biochemical, cell-free fluorescence (AID 449749). It counts as functional.

A further experiment addresses Major prion protein (Homo sapiens, UniProt P04156). The experiment is classed as functional, cell-based.

SMILES strings stand for the structures. The source made the active and inactive calls.

The record followed here is ChEMBL document CHEMBL1201862, “PubChem BioAssay data set” (2004).

Sequence of fMet-Leu-Phe receptor (P21462 whole entry): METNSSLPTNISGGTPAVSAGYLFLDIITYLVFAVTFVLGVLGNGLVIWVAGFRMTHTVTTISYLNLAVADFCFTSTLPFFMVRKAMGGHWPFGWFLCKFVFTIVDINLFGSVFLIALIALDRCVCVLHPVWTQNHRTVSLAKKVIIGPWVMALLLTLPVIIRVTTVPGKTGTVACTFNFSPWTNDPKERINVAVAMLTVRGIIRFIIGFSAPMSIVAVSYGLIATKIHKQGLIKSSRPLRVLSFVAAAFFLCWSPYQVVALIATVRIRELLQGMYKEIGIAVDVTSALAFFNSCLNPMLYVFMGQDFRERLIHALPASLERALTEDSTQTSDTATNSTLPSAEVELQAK
Sequence of 1-phosphatidylinositol 4,5-bisphosphate phosphodiesterase gamma-1 (P19174 whole entry): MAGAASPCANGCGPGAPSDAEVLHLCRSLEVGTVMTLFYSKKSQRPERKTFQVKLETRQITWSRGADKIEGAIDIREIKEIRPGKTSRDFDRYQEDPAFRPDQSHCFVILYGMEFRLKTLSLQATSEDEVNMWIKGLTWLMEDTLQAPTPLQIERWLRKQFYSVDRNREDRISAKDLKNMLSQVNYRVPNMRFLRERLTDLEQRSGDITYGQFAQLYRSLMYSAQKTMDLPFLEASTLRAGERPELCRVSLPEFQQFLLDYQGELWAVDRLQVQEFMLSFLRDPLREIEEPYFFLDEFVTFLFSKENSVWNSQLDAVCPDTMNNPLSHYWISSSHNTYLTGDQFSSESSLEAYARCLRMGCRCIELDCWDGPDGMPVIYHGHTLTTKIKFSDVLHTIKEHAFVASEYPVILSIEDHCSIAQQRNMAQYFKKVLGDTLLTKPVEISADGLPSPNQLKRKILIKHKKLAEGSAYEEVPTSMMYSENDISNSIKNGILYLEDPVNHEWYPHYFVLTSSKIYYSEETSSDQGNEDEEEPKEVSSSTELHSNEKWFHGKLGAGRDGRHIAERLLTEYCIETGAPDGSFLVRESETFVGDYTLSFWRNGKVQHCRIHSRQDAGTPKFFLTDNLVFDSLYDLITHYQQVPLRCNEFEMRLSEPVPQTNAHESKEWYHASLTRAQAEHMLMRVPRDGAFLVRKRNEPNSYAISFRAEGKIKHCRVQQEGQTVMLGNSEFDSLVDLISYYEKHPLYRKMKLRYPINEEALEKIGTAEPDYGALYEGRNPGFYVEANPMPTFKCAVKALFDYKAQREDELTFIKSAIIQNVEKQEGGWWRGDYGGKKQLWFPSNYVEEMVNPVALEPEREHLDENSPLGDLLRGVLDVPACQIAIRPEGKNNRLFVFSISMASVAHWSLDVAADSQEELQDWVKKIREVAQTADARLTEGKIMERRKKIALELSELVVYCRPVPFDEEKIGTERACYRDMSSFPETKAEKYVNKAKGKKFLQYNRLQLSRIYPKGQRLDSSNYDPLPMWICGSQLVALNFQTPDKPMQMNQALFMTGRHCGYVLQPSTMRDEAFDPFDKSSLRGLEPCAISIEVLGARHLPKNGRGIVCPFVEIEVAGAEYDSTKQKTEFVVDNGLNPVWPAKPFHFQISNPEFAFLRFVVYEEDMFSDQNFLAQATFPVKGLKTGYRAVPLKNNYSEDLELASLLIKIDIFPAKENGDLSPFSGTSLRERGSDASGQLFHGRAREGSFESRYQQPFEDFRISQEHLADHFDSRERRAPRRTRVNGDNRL
Sequence of Histone-lysine N-methyltransferase NSD2 (O96028 whole entry): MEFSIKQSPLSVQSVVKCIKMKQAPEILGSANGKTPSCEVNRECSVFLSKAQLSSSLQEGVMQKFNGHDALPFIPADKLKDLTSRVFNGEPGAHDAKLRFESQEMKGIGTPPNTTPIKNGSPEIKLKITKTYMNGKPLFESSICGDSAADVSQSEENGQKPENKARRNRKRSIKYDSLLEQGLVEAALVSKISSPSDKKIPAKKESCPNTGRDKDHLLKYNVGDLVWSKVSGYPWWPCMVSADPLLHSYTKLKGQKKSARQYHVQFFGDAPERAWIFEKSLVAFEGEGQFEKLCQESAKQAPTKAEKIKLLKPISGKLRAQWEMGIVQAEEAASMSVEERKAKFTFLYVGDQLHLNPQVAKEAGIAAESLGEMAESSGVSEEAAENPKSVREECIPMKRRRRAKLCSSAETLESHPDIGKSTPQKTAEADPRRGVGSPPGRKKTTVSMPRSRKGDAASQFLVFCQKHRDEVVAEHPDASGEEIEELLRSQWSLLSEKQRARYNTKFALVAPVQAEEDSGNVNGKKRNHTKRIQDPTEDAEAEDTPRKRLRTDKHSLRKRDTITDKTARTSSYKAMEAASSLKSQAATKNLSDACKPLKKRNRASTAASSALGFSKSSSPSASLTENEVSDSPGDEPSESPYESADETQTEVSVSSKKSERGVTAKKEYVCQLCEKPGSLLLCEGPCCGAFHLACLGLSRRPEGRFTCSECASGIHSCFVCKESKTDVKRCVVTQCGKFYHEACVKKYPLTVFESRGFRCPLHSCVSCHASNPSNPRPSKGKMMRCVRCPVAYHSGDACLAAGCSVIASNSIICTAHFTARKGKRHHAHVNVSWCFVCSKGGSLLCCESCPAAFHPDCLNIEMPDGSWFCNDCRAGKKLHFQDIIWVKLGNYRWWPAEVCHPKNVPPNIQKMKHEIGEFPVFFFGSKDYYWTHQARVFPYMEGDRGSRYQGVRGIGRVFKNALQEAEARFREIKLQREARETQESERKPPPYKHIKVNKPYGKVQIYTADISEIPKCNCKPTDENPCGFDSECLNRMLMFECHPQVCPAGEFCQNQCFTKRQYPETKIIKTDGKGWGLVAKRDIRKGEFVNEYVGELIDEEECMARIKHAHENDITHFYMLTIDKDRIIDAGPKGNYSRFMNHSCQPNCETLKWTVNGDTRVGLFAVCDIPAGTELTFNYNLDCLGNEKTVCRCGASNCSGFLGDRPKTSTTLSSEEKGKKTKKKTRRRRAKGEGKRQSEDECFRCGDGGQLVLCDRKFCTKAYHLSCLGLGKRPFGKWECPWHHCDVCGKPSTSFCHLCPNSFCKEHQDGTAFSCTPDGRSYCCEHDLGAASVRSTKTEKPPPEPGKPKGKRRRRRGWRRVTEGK

As for `COC(=O)C(C(=O)OC)[C@H]1C=C[C@@H](C(=O)NS(=O)(=O)c2ccc(C)cc2)N(C(C)=O)C1`, the figures for the IC50 in [1] and in experiment [2] were 2.03 µM (active) and > 122 µM (inactive), respectively.

Regarding `CC(C)(C)c1cc(C(=O)NNC(=O)Nc2ccccc2)n(Cc2ccccc2)n1`, the IC50 in experiment [1] and in experiment [2] was > 122 µM (inactive) throughout.

`CCN(c1ccccc1)S(=O)(=O)c1cc(C(=O)OC(C)C(=O)Nc2ccc3c(c2)OCCO3)ccc1C` (stereo not drawn): the IC50 is 2.47 µM (active) in experiment [3]; > 80 µM (inactive) in experiment [4]; > 69.5 µM (inactive) in experiment [5]; 4.38 µM (active) in experiment [6]; 5.05 µM (active) in [7]; > 7.72 µM (active) in experiment [8].

Regarding `Cc1ccc(C(=O)C2=C(O)C(=O)N(CCN3CCOCC3)C2c2cccnc2)cc1` (stereo not drawn), the Ki (in general, a dissociation constant, usually derived from enzyme kinetics or from competition with a known ligand) on fMet-Leu-Phe receptor is > 66.7 µM (inactive).

With `CC(C)(C)c1ccc(S(=O)(=O)/N=C2\C=C(NS(=O)(=O)c3ccccc3)C(=O)c3ccccc32)cc1`, the values for the IC50 (on Genome polyprotein; in [10]) were 25.5 µM (active) and 15 µM (active), respectively. The EC50 (commonly the concentration that produces a half-maximal response) on Protein RecA is 4.85 µM (active). Also, the AC50 – broadly, the midpoint of the concentration-response curve, whichever way the signal moves – is 3.73 µM (active) in experiment [9] and 4.68 µM (active) in experiment [11].

`Cc1ccc(Cc2c(-c3ccco3)nc3c(C)cc(Br)cn23)cc1`: the results for the IC50 on Major prion protein and in the experiment “cells” were 9.95 µM (active) and 78.6 µM (inactive), respectively.

As for `Cc1cc(NC(=O)C(C)Sc2nc(-c3cccs3)nc3ccccc23)no1` (stereo not drawn), the IC50 on Major prion protein was 1.7 µM (active); in “cells”, > 138 µM (inactive).

For the compound `Cc1ccc(-n2c(S)nnc2C2CC2c2ccc(Cl)cc2)cc1` (stereo not drawn), the IC50 in experiment [8] was > 69.5 µM (inactive).

Consider `Cc1ccc(-n2c(C3CC3c3ccc(Cl)cc3)n[nH]c2=S)cc1` (stereo not drawn), for which the IC50 in [5] is > 69.5 µM (inactive).

Consider `Cc1ccc(NC(=O)c2oc3ccc(S(=O)(=O)N4CCOCC4)cc3c2C)cc1C`, for which, at fMet-Leu-Phe receptor, the Ki is > 66.7 µM (inactive).
